From ChEMBL document CHEMBL1201862, “PubChem BioAssay data set” (2004)
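How tested: cells in 96-well plates exposed to compound for 48 hours at five concentrations. GI50: concentration for 50% inhibition of growth.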 Calls of active or inactive are those of the source. No stated cut-off is given here; in the data, active = GI50 up to about 1.1 µM and inactive = higher.

Tests used:
Test in all cases: growth of human tumour cells (NCI), 48 h
[1] = system: DLD-1
[2] = system: DMS-114
[3] = system: DMS-273
[4] = system: KM-20L2
[5] = system: LXFL 529
[6] = system: M19-MEL
[7] = system: RXF 631
[8] = system: XF498
[9] = system: HOP-18

Structure (SMILES) | GI50 [1] | GI50 [2] | GI50 [3] | GI50 [4] | GI50 [5] | GI50 [6] | GI50 [7] | GI50 [8] | GI50 [9]
Cc1ccc(NC(=O)C(=O)Cc2nc3ccccc3o2)c(C)c1 | > 100 µM (inactive) | > 100 µM (inactive) | > 100 µM (inactive) | > 100 µM (inactive) | > 100 µM (inactive) | > 100 µM (inactive) | > 100 µM (inactive) | > 100 µM (inactive) | 
O=c1/c(=C/c2c(O)ccc3ccccc23)sc2nc3ccccc3n12 | > 100 µM (inactive) | > 100 µM (inactive) | > 100 µM (inactive) | > 100 µM (inactive) | > 100 µM (inactive) | > 100 µM (inactive) | > 100 µM (inactive) | > 100 µM (inactive) | > 100 µM (inactive)
O=[PH](O)c1ccsc1 | > 100 µM (inactive) | > 100 µM (inactive) | > 100 µM (inactive) | > 100 µM (inactive) | > 100 µM (inactive) | > 100 µM (inactive) | > 100 µM (inactive) |  | > 100 µM (inactive)
COc1cc(C(C#N)NNc2nc(C)cc(O)n2)cc(OC)c1OC (centres undefined) | > 100 µM (inactive) |  | > 100 µM (inactive) | > 100 µM (inactive) | > 100 µM (inactive) | > 100 µM (inactive) |  |  | > 100 µM (inactive)
COc1ccc(/C=C/CN(C)CCc2ccccc2)cc1OC |  | 77.4 µM (inactive) | > 100 µM (inactive) | 42.3 µM (inactive) | 62.1 µM (inactive) | > 100 µM (inactive) |  |  | 
CNC(=O)CN(CC(N)=O)C(=O)NC | > 100 µM (inactive) |  | > 100 µM (inactive) | > 100 µM (inactive) | > 100 µM (inactive) | > 100 µM (inactive) | > 100 µM (inactive) | > 100 µM (inactive) | 
O=C(CCc1n[nH]c(=S)o1)Nc1cc(Cl)c(Cl)cc1Cl | 29 µM (inactive) | 41.3 µM (inactive) | 24.3 µM (inactive) | 45.8 µM (inactive) | 44.8 µM (inactive) | > 100 µM (inactive) | 44.6 µM (inactive) |  | 58.7 µM (inactive)
O=C1CCC2CCc3cccc4oc1c2c34 (centres undefined) | > 100 µM (inactive) | > 100 µM (inactive) | > 100 µM (inactive) | > 100 µM (inactive) | > 100 µM (inactive) | > 100 µM (inactive) |  | > 100 µM (inactive) | > 100 µM (inactive)
C=C1C(C(=O)O)C1C(=O)O (centres undefined) | > 100 µM (inactive) | > 100 µM (inactive) | > 100 µM (inactive) | > 100 µM (inactive) |  | > 100 µM (inactive) |  | > 100 µM (inactive) | > 100 µM (inactive)
Cc1ccc(S(=O)(=O)n2c(-c3ccccc3)c(-c3ccccc3)c3ccccc32)cc1 | > 100 µM (inactive) | 20.5 µM (inactive) | > 100 µM (inactive) | > 100 µM (inactive) | > 100 µM (inactive) | > 100 µM (inactive) |  | > 100 µM (inactive) | > 100 µM (inactive)
CCOc1cc(/C=C/C=C/C=C/c2ccc(N(C)C)cc2)[s+]c2ccccc12 |  | 5.61 µM (inactive) | 73.8 µM (inactive) |  | 16.3 µM (inactive) | 25 µM (inactive) | > 100 µM (inactive) | 23.8 µM (inactive) | 
O=C(CN(c1ccccc1)c1ccccc1)n1nnc2ccccc21 | 76.2 µM (inactive) | 29.3 µM (inactive) | 39.9 µM (inactive) | 36.4 µM (inactive) | 70.6 µM (inactive) | 20.6 µM (inactive) |  |  | 
COCCNC(=O)C1C(=O)C(=O)N(CCOC)C1=O (centres undefined) | > 100 µM (inactive) | > 100 µM (inactive) | > 100 µM (inactive) | > 100 µM (inactive) | > 100 µM (inactive) | > 100 µM (inactive) | > 100 µM (inactive) |  | > 100 µM (inactive)
CC(C)CC(NC(=O)OC(C)(C)C)C(=O)Nc1ccc(Nc2nc(F)nc(-c3c4ccccc4c4n3CCS4)n2)cc1 (centres undefined) | 20 µM (inactive) | 20.1 µM (inactive) | 16.9 µM (inactive) | 18.3 µM (inactive) | 19.5 µM (inactive) |  |  | 25.2 µM (inactive) | 24.4 µM (inactive)
O=C(O)CCSC(=O)Nc1cccc([N+](=O)[O-])c1 | 72.1 µM (inactive) | > 100 µM (inactive) | > 100 µM (inactive) |  | > 100 µM (inactive) |  |  |  | 
CCOc1ccc([Se][Se]c2ccc(OCC)cc2)cc1 | > 100 µM (inactive) | 20.7 µM (inactive) | 79.1 µM (inactive) | > 100 µM (inactive) | 26 µM (inactive) | 25.6 µM (inactive) | 44.5 µM (inactive) |  | > 100 µM (inactive)

Structure (SMILES) | GI50 [1] | GI50 [2] | GI50 [3] | GI50 [4] | GI50 [5] | GI50 [6] | GI50 [7] | GI50 [8] | GI50 [9]
COC(=O)C(CCCCCCCC(C(=O)OC)C1=Nc2nnc(N)n2C1=O)C1=Nc2nnc(N)n2C1=O (centres undefined) | > 100 µM (inactive) | > 100 µM (inactive) | > 100 µM (inactive) | > 100 µM (inactive) | > 100 µM (inactive) | 26.1 µM (inactive) | > 100 µM (inactive) | > 100 µM (inactive) | > 100 µM (inactive)
CSc1ncnc2c1CCN2 |  | > 100 µM (inactive) |  |  | > 100 µM (inactive) | > 100 µM (inactive) |  |  | 
CCOC(=O)C(NC(=O)c1nc[nH]c1[N+](=O)[O-])C(C)C (centres undefined) | 25 µM (inactive) | > 100 µM (inactive) | 53.6 µM (inactive) |  | 74.3 µM (inactive) | > 100 µM (inactive) |  | 19.9 µM (inactive) | 
CCOC(=O)C1Sc2ccccc2N=C1C (centres undefined) | > 100 µM (inactive) | > 100 µM (inactive) |  | > 100 µM (inactive) | > 100 µM (inactive) | > 100 µM (inactive) |  | > 100 µM (inactive) | > 100 µM (inactive)
COC(=O)C(=O)C(C(=O)OC)C(=O)C(=O)Nc1cc(Cl)c(C)cc1S(=O)(=O)O (centres undefined) | > 100 µM (inactive) | > 100 µM (inactive) | > 100 µM (inactive) | > 100 µM (inactive) | > 100 µM (inactive) | > 100 µM (inactive) |  | > 100 µM (inactive) | > 100 µM (inactive)
O=C(Nc1ccc(Cl)cc1)c1cccc([N+](=O)[O-])c1O | 3.18 µM (inactive) | 3.1 µM (inactive) | 3.13 µM (inactive) | 4.43 µM (inactive) | 3.1 µM (inactive) | 2.8 µM (inactive) |  | 2.64 µM (inactive) | 0.53 µM (active)
COc1cc2c(Cc3cc(OCc4ccccc4)ccc3N)nccc2c(OC)c1OC | > 10 µM (inactive) | > 10 µM (inactive) | > 10 µM (inactive) | > 10 µM (inactive) | > 10 µM (inactive) | > 10 µM (inactive) | 6.55 µM (inactive) | > 10 µM (inactive) | > 10 µM (inactive)
COc1ccc(C(=O)O/N=C2/CCCCC2CN(C)C)cc1 (centres undefined) | > 100 µM (inactive) |  | > 100 µM (inactive) | > 100 µM (inactive) | > 100 µM (inactive) | > 100 µM (inactive) | > 100 µM (inactive) |  | > 100 µM (inactive)
COC(=O)C12C3C4C5(C(=O)OC)C(C1C35C(=O)N(C(C)C)C(C)C)C42C(=O)N(C(C)C)C(C)C (centres undefined) | > 25.6 µM (inactive) | > 29.9 µM (inactive) | > 30.8 µM (inactive) | > 50 µM (inactive) | > 50 µM (inactive) | > 47.8 µM (inactive) |  |  | > 50 µM (inactive)
COc1cc2c(cc1O)[C@H](C)C(c1ccccc1OC)O2 (some centres undefined) | 4.75 µM (inactive) | 2.8 µM (inactive) | 2.67 µM (inactive) | 5.07 µM (inactive) | 8 µM (inactive) | 3.77 µM (inactive) |  | 5.19 µM (inactive) | > 100 µM (inactive)
CC(C)C1NC(=O)[C@H](C)OC(=O)[C@@H](C(C)C)NC(=O)[C@@H](C)OC(=O)C(C(C)C)NC(=O)[C@H](C)OC1=O (some centres undefined) | > 59.6 µM (inactive) | > 63.8 µM (inactive) | 59.2 µM (inactive) | 56.4 µM (inactive) | > 66.2 µM (inactive) | > 55.5 µM (inactive) |  | 94 µM (inactive) | > 100 µM (inactive)
O=C(Cc1ccccc1F)NC1=C(Cl)C(=O)c2ccccc2C1=O |  | 0.21 µM (active) | 1.52 µM (inactive) | 8.43 µM (inactive) | 0.405 µM (active) | 0.461 µM (active) |  | 0.706 µM (active) | 0.668 µM (active)
CCCN(CCC)C(=O)Cc1c2n(c3ccccc13)CCCc1ccccc1-2 | 13.6 µM (inactive) | 11.7 µM (inactive) | 11 µM (inactive) | 14.4 µM (inactive) | 13.6 µM (inactive) | 14.8 µM (inactive) |  | 15.1 µM (inactive) | 16.3 µM (inactive)
O=c1c(O)c(-c2ccc(O)c(O)c2)oc2cc(O)cc(O)c12 [QUERCETIN] | 37.2 µM (inactive) | 36.5 µM (inactive) | 49.7 µM (inactive) | 83.6 µM (inactive) | > 100 µM (inactive) | 77.8 µM (inactive) | 38.1 µM (inactive) | 72.8 µM (inactive) | > 100 µM (inactive)
COc1cc2ccc(=O)oc2cc1O [SCOPOLETIN] | 83.2 µM (inactive) | 28.5 µM (inactive) | 36.3 µM (inactive) | 187 µM (inactive) |  | 72.4 µM (inactive) |  | 63.7 µM (inactive) | 150 µM (inactive)
